Assay results as given in the supplement of paper PMC10307832.

Assays:
Experiment in all cases: relative viability (nuclei count vs DMSO), 5 days (fraction); higher = more cells survive
NCI-H460 = test system: NCI-H460
Method in brief: (§1)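 Lung cancer cell lines in 1536-well plates were dosed by pin tool the day after seeding, either with one drug alone or with a fixed anchor-drug dose plus five library-drug doses (not always all listed) in √10 steps. After 5 days, cells were fixed and their nuclei stained in one step (final 0.05% Triton X-100, 1% formaldehyde, 1 ug/ml Hoechst), then counted on 4× images. Relative viability is the nuclei count in treated wells divided by that in vehicle wells. Values are medians of duplicate plates.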

NCI-H1650 = test system: NCI-H1650
Method in brief: as §1

NCI-H2087 = test system: NCI-H2087
Method in brief: as §1

NCI-H596 = test system: NCI-H596
Method in brief: as §1

PC-3 [JPC-3] = test system: PC-3 [JPC-3]
Method in brief: as §1

NCI-H1915 = test system: NCI-H1915
Method in brief: as §1

NCI-H1944 = test system: NCI-H1944
Method in brief: as §1

NCI-H1792 = test system: NCI-H1792
Method in brief: as §1

CAL-12T = test system: CAL-12T
Method in brief: as §1

NCI-H2023 = test system: NCI-H2023
Method in brief: as §1

ABC-1 = test system: ABC-1
Method in brief: as §1

201T = test system: 201T
Method in brief: as §1

NCI-H520 = test system: NCI-H520
Method in brief: as §1

LCLC-97TM1 = test system: LCLC-97TM1
Method in brief: as §1

A-427 = test system: A-427
Method in brief: as §1

NCI-H441 = test system: NCI-H441
Method in brief: as §1

NCI-H661 = test system: NCI-H661
Method in brief: as §1

LC-2-ad = test system: LC-2-ad
Method in brief: as §1

NCI-H650 = test system: NCI-H650
Method in brief: as §1

H3255 = test system: H3255
Method in brief: as §1

NCI-H1651 = test system: NCI-H1651
Method in brief: as §1

NCI-H727 = test system: NCI-H727
Method in brief: as §1

BEN = test system: BEN
Method in brief: as §1

Oc1nc(-c2ccc(C(F)(F)F)cc2)nc2c1CSCC2 [XAV939] + CCNC(=O)c1noc(-c2cc(C(C)C)c(O)cc2O)c1-c1ccc(CN2CCOCC2)cc1 [Luminespib] (partner 0.01 µM)
relative viability (NCI-H460; first compound 0.08 µM): 0.0319 | relative viability (NCI-H460; first compound 0.253 µM): 0.0395 | relative viability (NCI-H460; first compound 0.8 µM): 0.0405 | relative viability (NCI-H460; first compound 2.53 µM): 0.0235 | relative viability (NCI-H1650; first compound 0.08 µM): 0.196 | relative viability (NCI-H1650; first compound 0.253 µM): 0.225 | relative viability (NCI-H1650; first compound 0.8 µM): 0.177 | relative viability (NCI-H1650; first compound 2.53 µM): 0.197 | relative viability (NCI-H2087; first compound 0.08 µM): 0.165 | relative viability (NCI-H2087; first compound 0.253 µM): 0.128 | relative viability (NCI-H2087; first compound 0.8 µM): 0.152 | relative viability (NCI-H2087; first compound 2.53 µM): 0.142 | relative viability (NCI-H596; first compound 0.08 µM): 1.06 | relative viability (NCI-H596; first compound 0.253 µM): 0.881 | relative viability (NCI-H596; first compound 0.8 µM): 1.13 | relative viability (NCI-H596; first compound 2.53 µM): 0.873 | relative viability (PC-3 [JPC-3]; first compound 0.08 µM): 0.829 | relative viability (PC-3 [JPC-3]; first compound 0.253 µM): 0.647 | relative viability (PC-3 [JPC-3]; first compound 0.8 µM): 0.68 | relative viability (PC-3 [JPC-3]; first compound 2.53 µM): 0.635 | relative viability (NCI-H1915; first compound 0.08 µM): 1.11 | relative viability (NCI-H1915; first compound 0.253 µM): 0.449 | relative viability (NCI-H1915; first compound 0.8 µM): 0.849 | relative viability (NCI-H1915; first compound 2.53 µM): 0.741 | relative viability (NCI-H1944; first compound 0.08 µM): 0.843 | relative viability (NCI-H1944; first compound 0.253 µM): 0.676 | relative viability (NCI-H1944; first compound 0.8 µM): 0.788 | relative viability (NCI-H1944; first compound 2.53 µM): 0.595 | relative viability (NCI-H1792; first compound 0.08 µM): 0.419 | relative viability (NCI-H1792; first compound 0.253 µM): 0.391 | relative viability (NCI-H1792; first compound 0.8 µM): 0.466 | relative viability (NCI-H1792; first compound 2.53 µM): 0.464 | relative viability (CAL-12T; first compound 0.08 µM): 0.54 | relative viability (CAL-12T; first compound 0.253 µM): 0.363 | relative viability (CAL-12T; first compound 0.8 µM): 0.363 | relative viability (CAL-12T; first compound 2.53 µM): 0.3 | relative viability (NCI-H2023; first compound 0.08 µM): 0.888 | relative viability (NCI-H2023; first compound 0.253 µM): 0.604 | relative viability (NCI-H2023; first compound 0.8 µM): 0.589 | relative viability (NCI-H2023; first compound 2.53 µM): 0.454 | relative viability (ABC-1; first compound 0.08 µM): 0.778 | relative viability (ABC-1; first compound 0.253 µM): 0.584 | relative viability (ABC-1; first compound 0.8 µM): 0.795 | relative viability (ABC-1; first compound 2.53 µM): 0.405 | relative viability (201T; first compound 0.08 µM): 1.02 | relative viability (201T; first compound 0.253 µM): 0.994 | relative viability (201T; first compound 0.8 µM): 1.05 | relative viability (201T; first compound 2.53 µM): 0.877 | relative viability (NCI-H520; first compound 0.08 µM): 0.233 | relative viability (NCI-H520; first compound 0.253 µM): 0.243 | relative viability (NCI-H520; first compound 0.8 µM): 0.201 | relative viability (NCI-H520; first compound 2.53 µM): 0.204 | relative viability (LCLC-97TM1; first compound 0.08 µM): 0.977 | relative viability (LCLC-97TM1; first compound 0.253 µM): 0.763 | relative viability (LCLC-97TM1; first compound 0.8 µM): 0.835 | relative viability (LCLC-97TM1; first compound 2.53 µM): 0.765 | relative viability (A-427; first compound 0.08 µM): 1.15 | relative viability (A-427; first compound 0.253 µM): 0.978 | relative viability (A-427; first compound 0.8 µM): 0.753 | relative viability (A-427; first compound 2.53 µM): 0.782 | relative viability (NCI-H441; first compound 0.08 µM): 0.374 | relative viability (NCI-H441; first compound 0.253 µM): 0.355 | relative viability (NCI-H441; first compound 0.8 µM): 0.245 | relative viability (NCI-H441; first compound 2.53 µM): 0.282 | relative viability (NCI-H661; first compound 0.08 µM): 0.894 | relative viability (NCI-H661; first compound 0.253 µM): 0.892 | relative viability (NCI-H661; first compound 0.8 µM): 0.913 | relative viability (NCI-H661; first compound 2.53 µM): 0.933 | relative viability (LC-2-ad; first compound 0.08 µM): 1.2 | relative viability (LC-2-ad; first compound 0.253 µM): 0.938 | relative viability (LC-2-ad; first compound 0.8 µM): 0.973 | relative viability (LC-2-ad; first compound 2.53 µM): 0.853 | relative viability (NCI-H650; first compound 0.08 µM): 0.858 | relative viability (NCI-H650; first compound 0.253 µM): 0.75 | relative viability (NCI-H650; first compound 0.8 µM): 0.93 | relative viability (NCI-H650; first compound 2.53 µM): 0.745 | relative viability (H3255; first compound 0.08 µM): 1.09 | relative viability (H3255; first compound 0.253 µM): 0.879 | relative viability (H3255; first compound 0.8 µM): 0.804 | relative viability (H3255; first compound 2.53 µM): 0.907 | relative viability (NCI-H1651; first compound 0.08 µM): 0.988 | relative viability (NCI-H1651; first compound 0.253 µM): 0.699 | relative viability (NCI-H1651; first compound 0.8 µM): 0.896 | relative viability (NCI-H1651; first compound 2.53 µM): 0.725 | relative viability (NCI-H727; first compound 0.08 µM): 0.31 | relative viability (NCI-H727; first compound 0.253 µM): 0.345 | relative viability (NCI-H727; first compound 0.8 µM): 0.472 | relative viability (NCI-H727; first compound 2.53 µM): 0.342 | relative viability (BEN; first compound 0.08 µM): 0.237 | relative viability (BEN; first compound 0.253 µM): 0.211 | relative viability (BEN; first compound 0.8 µM): 0.334 | relative viability (BEN; first compound 2.53 µM): 0.262
